From the supplement of paper PMC8671470

Assays:
Test in all cases: cell viability (% survival relative to DMSO control); higher = less cytotoxic
Conditions in all cases: 72 h
MV4-11 = system: MV4-11
Procedure: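 8x8 drug-combination matrices (0–5000 nM; rosiglitazone and lestaurtinib 0–1000 nM) were run in MV4-11 cells for 72 h with CellTiter-Glo read-out. Survival is normalised to DMSO and 10 µM bortezomib and clipped at 100%.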

BV-173 = system: BV-173
Procedure: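 8x8 drug-combination matrices (0–5000 nM; rosiglitazone and lestaurtinib 0–1000 nM) were run in BV-173 cells for 72 h with CellTiter-Glo read-out. Survival is normalised to DMSO and 10 µM bortezomib and clipped at 100%.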

HL-60 = system: HL-60
Procedure: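 8x8 drug-combination matrices (0-5000 nM; rosiglitazone and lestaurtinib 0-1000 nM) were run in HL-60 cells for 72 h with a CellTiter-Glo read-out. Survival is normalised to DMSO and 10 µM bortezomib and clipped at 100%. Bliss synergy was analysed in SynergyFinder.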

O=C(C1CC1)N1CC[C@@H](C=C2NNC(=O)N2c2ccc(-c3ccc4occc4c3)cc2)C1 + O=C(c1c2ccccc2cc2ccccc12)N1CCC(N2CCC[C@@H](C(=O)N3CCOCC3)C2)CC1 [CP-640186]
cell viability [%]
Conditions | drug1 concentration 5 nM | drug1 concentration 10 nM | drug1 concentration 50 nM | drug1 concentration 100 nM | drug1 concentration 500 nM | drug1 concentration 1000 nM | drug1 concentration 5000 nM
BV-173, drug2 concentration 5 nM | 96.3 | > 100 | > 100 | > 100 | 97.3 | 98.1 | 77.8
BV-173, drug2 concentration 10 nM | > 100 | > 100 | 87.8 | > 100 | > 100 | 96.1 | 58.3
BV-173, drug2 concentration 50 nM | > 100 | > 100 | > 100 | > 100 | 91.1 | 78.9 | 97.1
BV-173, drug2 concentration 100 nM | > 100 | > 100 | > 100 | > 100 | > 100 | > 100 | > 100
BV-173, drug2 concentration 500 nM | > 100 | > 100 | > 100 | > 100 | > 100 | > 100 | 96.6
BV-173, drug2 concentration 1000 nM | 86.4 | > 100 | > 100 | 91.9 | > 100 | > 100 | > 100
BV-173, drug2 concentration 5000 nM | > 100 | > 100 | 87.5 | 99.5 | 91.6 | > 100 | > 100
HL-60, drug2 concentration 5 nM | 79.6 | > 100 | 88.2 | 88.2 | 60 | 71.7 | 88.2
HL-60, drug2 concentration 10 nM | 96.6 | 97.7 | 86.2 | 86.2 | 91.2 | 72 | 64.5
HL-60, drug2 concentration 50 nM | 90 | 95.2 | 82.5 | 88 | 81.8 | 68.2 | 74.1
HL-60, drug2 concentration 100 nM | 88 | 90 | 78.2 | 90.5 | 74.4 | 63.6 | 72.3
HL-60, drug2 concentration 500 nM | 86.2 | 88.5 | 75.1 | 91.1 | 70.5 | 57.8 | 71.1
HL-60, drug2 concentration 1000 nM | 84 | 84.2 | 70.3 | 75.1 | 61.5 | 56.3 | 79.2
HL-60, drug2 concentration 5000 nM | 77.2 | 79.4 | 72 | 74.6 | 52.4 | 53.7 | 66.5
MV4-11, drug2 concentration 5 nM | 95.4 | 96.1 | 93.4 | 98.1 | 97.2 | 100 | > 100
MV4-11, drug2 concentration 10 nM | 89.8 | > 100 | > 100 | > 100 | > 100 | > 100 | 88.2
MV4-11, drug2 concentration 50 nM | > 100 | 98.5 | > 100 | > 100 | 83.6 | > 100 | > 100
MV4-11, drug2 concentration 100 nM | 98.3 | > 100 | > 100 | > 100 | > 100 | > 100 | > 100
MV4-11, drug2 concentration 500 nM | > 100 | 91 | 88.9 | 90.1 | > 100 | > 100 | 97.5
MV4-11, drug2 concentration 1000 nM | > 100 | 97.9 | 98.6 | > 100 | > 100 | > 100 | > 100
MV4-11, drug2 concentration 5000 nM | 98.1 | 86 | 96.1 | > 100 | 91.9 | 86.4 | 92.3

O=C(C1CC1)N1CC[C@@H](C=C2NNC(=O)N2c2ccc(-c3ccc4occc4c3)cc2)C1 + C[C@H](NC(=O)c1sccc1OCc1ccc(Cl)cc1)c1ccccc1 [as1949490]
cell viability [%]
Conditions | drug1 concentration 5 nM | drug1 concentration 10 nM | drug1 concentration 50 nM | drug1 concentration 100 nM | drug1 concentration 500 nM | drug1 concentration 1000 nM | drug1 concentration 5000 nM
BV-173, drug2 concentration 5 nM | > 100 | > 100 | > 100 | > 100 | 91.8 | 93.3 | 80.6
BV-173, drug2 concentration 10 nM | 94.1 | > 100 | > 100 | > 100 | > 100 | > 100 | > 100
BV-173, drug2 concentration 50 nM | > 100 | > 100 | > 100 | 85 | > 100 | 88.7 | 96.7
BV-173, drug2 concentration 100 nM | > 100 | 80.2 | > 100 | 88.5 | > 100 | 96 | 84.7
BV-173, drug2 concentration 500 nM | 85.5 | > 100 | 84.8 | > 100 | 91.2 | 92.3 | 77.2
BV-173, drug2 concentration 1000 nM | > 100 | 87.6 | 99.3 | > 100 | 80.2 | 73.6 | 58.5
BV-173, drug2 concentration 5000 nM | 65.2 | 44.9 | 73.8 | 46 | 44.2 | 57.2 | 0
HL-60, drug2 concentration 5 nM | 81.9 | 89 | 82.7 | 68 | 60.7 | 60.8 | 51.6
HL-60, drug2 concentration 10 nM | > 100 | 86.7 | 79.5 | 65 | 58.1 | 58.4 | 48.5
HL-60, drug2 concentration 50 nM | 99.3 | 83.4 | 74.8 | 57.3 | 59.3 | 51.9 | 42.1
HL-60, drug2 concentration 100 nM | 95.7 | 83.4 | 68.3 | 53.2 | 56.1 | 48.8 | 37.7
HL-60, drug2 concentration 500 nM | 88.6 | 78.1 | 63.5 | 56 | 46.3 | 49.6 | 38.5
HL-60, drug2 concentration 1000 nM | 86.2 | 76.1 | 60.1 | 46.8 | 43.6 | 44.1 | 35.8
HL-60, drug2 concentration 5000 nM | 80.8 | 72.6 | 57.6 | 43.4 | 44.8 | 40.9 | 33.3
MV4-11, drug2 concentration 5 nM | > 100 | > 100 | > 100 | 83.1 | > 100 | 96.5 | > 100
MV4-11, drug2 concentration 10 nM | > 100 | > 100 | > 100 | > 100 | > 100 | > 100 | > 100
MV4-11, drug2 concentration 50 nM | > 100 | 99 | > 100 | > 100 | > 100 | > 100 | > 100
MV4-11, drug2 concentration 100 nM | > 100 | 80.4 | > 100 | 92.8 | 92.2 | > 100 | 98.4
MV4-11, drug2 concentration 500 nM | > 100 | 96.5 | > 100 | > 100 | > 100 | 93.8 | > 100
MV4-11, drug2 concentration 1000 nM | > 100 | > 100 | 98 | 89.7 | 86.3 | > 100 | 61.8
MV4-11, drug2 concentration 5000 nM | 77.3 | 85.6 | 71.7 | 79.5 | 62 | 58.4 | 72
